Measurements published in US12564631B2, “Phytosphingosine derivatives as adjuvants in immune stimulation” (Helmholtz-Zentrum für Infektionsforschung GmbH, priority 2020, dated 2026).
“Also recorded” adds a separate entry of the source.

Key:
[1] = system: CD4+ T cells; assay: CFSE proliferation assay of CD4+ T cells after interaction with Ova/adjuvant-matured bone marrow derived DCs (APC); type: cell-based, mice
Description: FIG. 3B: Cell proliferation tracked by CFSE dilution of CD4+ T cells after interaction with matured Antigen Presenting Cells (APC). With every cell division, the CFSE signal strength is approximately halved. The shown cell numbers indicate the ratio of proliferated live CD4+ T cells.
(§1) FIG. 4: Effect after treatment with IPB 0964-1917—Cell proliferation tracked by CFSE loss of T cells after interaction with matured Antigen Presenting Cells (APC). With every cell division, the CFSE signal strength is reduced. The shown cell numbers indicate the ratio of proliferating T and B cells (7 steps are shown). (A) Numbers of CD4+ T cells are shown at different proliferation steps up to 7 days measuring the loss of CFSE. Naïve cells were treated with one of IPB1901-1912 together with DCs activated with Ova prior to the CFSE assay. (B) Numbers of CD4+ T cells are shown at different proliferation steps up to 7 days measuring the loss of CFSE. Naïve cells were treated with one of IPB2033-2044 together with DCs activated with Ova prior to the CFSE assay. (C) Numbers of CD8+ T cells are shown at different proliferation steps up to 7 days measuring the loss of CFSE. Naïve cells were treated with one of IPB1901-1912 together with DCs activated with Ova prior to the CFSE assay. (D) Numbers of CD8+ T cells are shown at different proliferation steps up to 7 days measuring the loss of CFSE. Naïve cells were treated with one of IPB2033-2044 together with DCs activated with Ova prior to the CFSE assay.
(§2) In order to assess the properties of the inventive compounds in antigen-specific T and B cell stimulation, the compounds were administered to cultured bone marrow cells in a CFSE assay.
(§3) Briefly, femurs and Tibiae of female 4-12 weeks old C57Bl6 (or BALB/c for TCR HA) were removed and purified from the surrounding muscle tissue (Kleenex tissues). Intact Bones were left in 70% ethanol for 2-5 min for disinfection. Both ends were cut with scissors and the bone marrow were flushed with PBS using a syringe with a 0.45 mm diameter needle, clusters were disintegrated by vigorous pipetting.
(§4) In order to obtain activated antigen presenting dendritic cells (DCs), bone marrow cells were cultured with GM-CSF. On Day 0, cells were seeded in a concentration of 2×10^6 cells per 100 mm dish (bacteriological petri dishes) in 10 ml RPMI-10 (100 U Pen/100 μg Strept/2 mM Glutamin/50 μm ß-Mercaptoethanol/10% FCS heat-inactivated and filtered 0.22 μm Filter) containing 200 Units GM-CSF. On Day 3 another 10 ml RPMI-10 containing 200 U GM-CSF were added to the plates. On Day 6 half of the culture supernatants (10 ml) were collected, centrifuged and the cell pellet resuspended in 10 ml fresh RPMI-10/200 U GM-CSF and given back into the original plates.
(§5) Subsequently, the DCs were incubated with Ovalbumin (as antigen) alone or co-administered with known adjuvants, such as α-GalCerMPEG, aßGalCerMPEG or TLR2/6 ligand (BPPcysMPEG), or the novel phytosphingosine derivatives of the present invention. The activation of DCs was controlled by FACS analysis of different CD markers, such as CD40, CD54, CD80, CD86, CD83, MHCI and MHCII.
(§6) The effect of the compounds of the present invention was then ascertained via co-incubation of naïve T or B cells, obtained from mice (OTI or OTII mice) with previous exposure to the Ova antigen, with DCs that had been treated with the compounds of the invention.
(§7) Naïve T cells were derived from LN/spleen from OTI or OTII mice. The MagniSort™ Mouse CD4 naïve or CD8 naïve T cell Enrichment Kit is designed for the magnetic separation of CD4 or CD8 naïve T cells by negative selection from mouse spleens or lymph nodes utilizing a biotinylated antibody cocktail and streptavidin-coated magnetic beads. Undesired cells are bound by antibody (Anti-Mouse CD8 or CD4/CD11b CD19/CD24/CD44/CD45R(B220)/CD49b(Integrin α 2)/Ly-6G (Gr-1)/γδ TCR/TER-119) and then magnetic beads that, when placed in a magnetic field, leave CD4 or CD8 naïve T cells untouched and free in solution. […]

[2] = system: CD8+ T cells; assay: CFSE proliferation assay of CD8+ T cells after interaction with Ova/adjuvant-matured bone marrow derived DCs (APC); type: cell-based, mice; conditions: DCs restimulated with Ovalbumin + 10 μg compound for 24 h; interaction with APC for 5 days; FIG. 3C
Description: FIG. 3C: Cell proliferation tracked by CFSE dilution of CD8+ T cells after interaction with matured Antigen Presenting Cells (APC). With every cell division, the CFSE signal strength is approximately halved. The shown cell numbers indicate the ratio of proliferated live CD8+ T cells
as §1, §2, §3, §4, §5, §6, §7

[3] = system: Ova-specific IgG; assay: Ova-specific IgG titer (ELISA) in sera of mice immunized with Ovalbumin plus adjuvant; type: in vivo; conditions: Ovalbumin 30 μg + adjuvant 15 μg, days 0, 14, 28, sera 14 days after last immunization
Experimental: FIG. 5: Immunization protocol—Administration (intramuscular route) of Ovalbumin with adjuvants. Ovalbumin (30 μg) was co-administered (intramuscular) without or with different adjuvants, such as IPB 2033-2044, c-di-AMP or aßGalCerMPEG (15 μg), on days 0, 14 and 28.
FIG. 7: Systemic humoral immune responses induced in mice. Shown is the IgG titer as a readout of systemic humoral immune responses induced in mice after three immunizations with Ovalbumin co-administered with different adjuvants via intramuscular route. Ova-specific IgG titers were measured via ELISA in sera 14 days after the last immunization.
FIG. 9: Immunization protocol—Administration (intranasal route) of Ovalbumin with adjuvants. Immunization protocol: Mucosal administration (intranasal (i.n.) route) of Ovalbumin (30 μg) co-administered without or with different adjuvants, such as IPB 2033-2044, c-di-AMP or aßGalCerMPEG (15 μg), on days 0, 14 and 28.
FIG. 11: Systemic humoral immune responses induced in mice. Shown is the IgG titer as a readout of systemic humoral immune responses induced in mice after three immunizations with Ovalbumin co-administered with different adjuvants via intranasal route. Ova-specific IgG titers in sera 14 days after the last immunization.
Groups of mice (3-5 animals) were immunized either intranasal (i.n.) or intramuscular (i.m.) on days 0, 14 and 281 with PBS, or with Ovalbumin (30 μg); the latter were administered alone or with different adjuvants—c-di-AMP, aßGalCerMPEG or IPB 2033 to 2044—made up to a maximal volume of 20 μl (i.n.) or 50 μl (i.m.) in PBS.
Blood samples were collected on days 1, 14, 28 and 42 via retro-bulbar bleeding. Spleens of vaccinated mice were aseptically removed. For the subsequent methods, cell suspensions of spleens (n=5) of each immunized groups were prepared and erythrocytes were lysed. These splenocyte pools of each group were cultured in the presence of different concentrations of Ovalbumin; controls received 5 μg/mL concanavalin A. The incorporation of [^3H] thymidine into the DNA of proliferating cells was determined using a scintillation counter (Wallac 1450, Micro-Trilux).
The Ova-specific antibodies were determined in serum samples by ELISA. Endpoint titers were expressed as reciprocal values of the last dilution, which gave an optical density at 405 nm of two times above the values of the negative controls. For calculation purposes, negative samples were assigned an arbitrary titer of the lowest dilution measured.
As described in the protocols above, groups of mice (3-5 animals) were immunized either intranasal (i.n.) or intramuscular (i.m.) on days 0, 14 and 281 with PBS, or with Ovalbumin (30 μg); the latter were administered alone or with different adjuvants—c-di-AMP, aßGalCerMPEG or IPB 2033 to 2044—is shown in FIG. 5-11, intramuscular.

| Structure (SMILES) | capacity to induce antigen specific CD4+ T cell proliferation ([1]; DCs restimulated with Ovalbumin + 10 μg compound for 24 h, interaction with APC for 5 days, FIG. 3B) | effect to induce antigen specific CD8+ T cell proliferation [2] | stimulation of antigen specific IgG production compared to control aßGalCerMPEG+ova ([3]; intramuscular (i.m.), FIG. 7) | stimulation of antigen specific IgG production compared to control aßGalCerMPEG+ova ([3]; intranasal (i.n.), FIG. 11) | stimulating effect of CD4+ T cells versus controls with only antigen Ova ([1]; CFSE loss up to 7 days, DCs activated with Ova + 10 μg compound, FIG. 4A/4B) |
| --- | --- | --- | --- | --- | --- |
| CCCCCCCCCCCCCCCCCCCCCCCC(=O)N(CC(=O)NCCC(=O)O)[C@@H](CO[C@H]1OC(CO)[C@H](O)C(O)C1O)[C@H](O)[C@H](O)CCCCCCCCCCCCCC (some centres unmarked) [IPB 0964] | high capacity | strong effect; also recorded: beneficial effect |  |  |  |
| CCCCCCCCCCCCCCCCCCCCCCCCCC(=O)N(CC(=O)NCCCCCCN)[C@@H](CO[C@H]1OC(CO)[C@H](O)C(O)C1O)[C@H](O)[C@H](O)CCCCCCCCCCCCCC (some centres unmarked) [IPB 2035] |  |  | improved stimulation | at least equivalent |  |
| CCCCCCCCCCCCCCCCCCCCCCCCCC(=O)N(CC(=O)NCCCc1ccccc1)[C@@H](CO[C@H]1OC(CO)[C@H](O)C(O)C1O)[C@H](O)[C@H](O)CCCCCCCCCCCCCC (some centres unmarked) [IPB 2037] |  |  | improved stimulation | at least equivalent |  |
| CCCCCCCCCCCCCCCCCCCCCCCC(=O)N(CC(=O)NCCCCCCCCCCCCCCCCCC)[C@@H](CO[C@H]1OC(CO)[C@H](O)C(O)C1O)[C@H](O)[C@H](O)CCCCCCCCCCCCCC (some centres unmarked) [IPB 2040] |  |  | improved stimulation | improved stimulation |  |
| CCCCCCCCCCCCCCCCCCCCCCCCCC(=O)N(CC(=O)NCC(OC)OC)[C@@H](CO[C@H]1OC(CO)[C@H](O)C(O)C1O)[C@H](O)[C@H](O)CCCCCCCCCCCCCC (some centres unmarked) [IPB 2038] |  |  | at least equivalent | improved stimulation | stimulating effect of CD4+ T cells beyond controls |
| CCCCCCCCCCCCCCCCCCCCCCCCCC(=O)N(CC(=O)NCCOCCOCCOCCOC)[C@@H](CO[C@H]1OC(CO)[C@H](O)[C@H](O)C1O)[C@H](O)[C@H](O)CCCCCCCCCCCCCC (some centres unmarked) [IPB 2034] |  |  | improved stimulation | at least equivalent |  |
| CCCCCCCCCCCCCCCCCCCCCCCCCC(=O)N(CC(=O)NCCC(=O)OC(C)(C)C)[C@@H](CO[C@H]1OC(CO)[C@H](O)C(O)C1O)[C@H](O)[C@H](O)CCCCCCCCCCCCCC (some centres unmarked) [IPB 2043] |  |  | improved stimulation | improved stimulation |  |
| CCCCCCCCCCCCCCCCCCCCCCCCCC(=O)N(CC(=O)NCCCCCCCCCCCCCCCCCC)[C@@H](CO[C@H]1OC(CO)[C@H](O)C(O)C1O)[C@H](O)[C@H](O)CCCCCCCCCCCCCC (some centres unmarked) [IPB 2033] |  |  | improved stimulation | improved stimulation |  |
| CCCCCCCCCCCCCCCCCCCCCCCCCC(=O)N(CC(=O)NCc1ccccc1)[C@@H](CO[C@H]1OC(CO)[C@H](O)C(O)C1O)[C@H](O)[C@H](O)CCCCCCCCCCCCCC (some centres unmarked) [IPB 2042] |  |  | improved stimulation | improved stimulation |  |
| CCCCCCCCCCCCCCCCCCCCCCCCCC(=O)N(CC(=O)NCCN1C(=O)c2cccc3c(N(C)C)ccc(c23)C1=O)[C@@H](CO[C@H]1OC(CO)[C@H](O)C(O)C1O)[C@H](O)[C@H](O)CCCCCCCCCCCCCC (some centres unmarked) [IPB 2041] |  |  | at least equivalent | improved stimulation |  |
| CCCCCCCCCCCCCCCCCCCCCCCCCC(=O)N(CC(=O)NCCOCCOCCOCCOCCOC)[C@@H](CO[C@H]1OC(CO)[C@H](O)[C@H](O)C1O)[C@H](O)[C@H](O)CCCCCCCCCCCCCC (some centres unmarked) [IPB 2044] |  |  | at least equivalent | at least equivalent |  |
